Measured values from patent US20250302783A1, “SYMPATHETIC NERVE ACTIVATION AGENT AND SYMPATHETIC NERVE ACTIVATION COMPOSITION” (MARUZEN PHARMACEUTICALS CO., LTD., priority 2022, published 2025).

Tests used:
[1] = test system: distal branches of the sympathetic nerve innervating the liver; experiment: Hepatic sympathetic nerve activity (Hepatic-SNA) after intragastric administration, Test Example 1; format: in vivo, rat; details: urethane-anesthetized male rats, measured for 60 minutes, FIG. 4
Procedure: The effect of the intragastric administration of the compound represented by Structural Formula (1) on the activity of the sympathetic nerve innervating the white adipose tissue, the brown adipose tissue, the adrenal gland, or the liver was tested in the following manner. For the experiment, male Whistar rats (approximately 9 weeks old) each having a body weight of approximately 300 g were kept in a 24° C. thermostatic animal room for 1 week or longer with a 12-hour light-dark cycle (lighting from 8:00 to 20:00). On the day of the experiment, the rats were fasted for 3 hours, followed by anesthetizing with urethane. A cannula for intragastric administration was inserted into each of the rats, and then distal branches of the sympathetic nerve innervating the right epididymal white adipose tissue, the interscapular brown adipose tissue, the left adrenal gland, or the liver were lifted with a silver electrode, and the electrical activity thereof was measured. When the measurement value stabilized (at approximately 13:00), an aqueous solution of the compound represented by Structural Formula (1) (produced by Tokyo Chemical Industry Co., Ltd.) was intragastrically administered using the cannula at a dose of 15 mg/0.5 mL/300 g of body weight, 1.5 mg/0.5 mL/300 g of body weight, 0.15 mg/0.5 mL/300 g of body weight, or 0.015 mg/0.5 mL/300 g of body weight, and the change in the neural activity of the distal branches of the above sympathetic nerves was measured electrophysiologically for 60 minutes. In addition, as a control, water serving as a solvent was intragastrically administered using the cannula at a dose of 0.5 mL/300 g of body weight, and the change in the neural activity of the distal branches of the above sympathetic nerves was measured electrophysiologically for 60 minutes. […] The data of the neural activity was analyzed as the mean value of the firing rate per 5 seconds (pulse/5 s) every 5 minutes, and represented by a percentage relative to the mean value (a value at 0 minutes) at 5 minutes before the onset of stimulation being determined as 100%. […]

[2] = test system: distal branches of the sympathetic nerve innervating the right epididymal white adipose tissue; experiment: White adipose tissue sympathetic nerve activity (WAT-SNA) after intragastric administration, Test Example 1; format: in vivo, rat; details: urethane-anesthetized male rats, measured for 60 minutes, FIG. 1
Procedure: The effect of the intragastric administration of the compound represented by Structural Formula (1) on the activity of the sympathetic nerve innervating the white adipose tissue, the brown adipose tissue, the adrenal gland, or the liver was tested in the following manner. For the experiment, male Whistar rats (approximately 9 weeks old) each having a body weight of approximately 300 g were kept in a 24° C. thermostatic animal room for 1 week or longer with a 12-hour light-dark cycle (lighting from 8:00 to 20:00). On the day of the experiment, the rats were fasted for 3 hours, followed by anesthetizing with urethane. A cannula for intragastric administration was inserted into each of the rats, and then distal branches of the sympathetic nerve innervating the right epididymal white adipose tissue, the interscapular brown adipose tissue, the left adrenal gland, or the liver were lifted with a silver electrode, and the electrical activity thereof was measured. […] In addition, as a control, water serving as a solvent was intragastrically administered using the cannula at a dose of 0.5 mL/300 g of body weight, and the change in the neural activity of the distal branches of the above sympathetic nerves was measured electrophysiologically for 60 minutes. […]

[3] = 1.5 mg/0.5 mL/300 g of body weight
[4] = 15 mg/0.5 mL/300 g of body weight

SMILES: COc1cc(CCC(=O)O)ccc1O [3-(4-hydroxy-3-methoxyphenyl) propionic acid]
- change in hepatic sympathetic nerve activity (Hepatic-SNA) versus water control ([1]; 0.15 mg/0.5 mL/300 g of body weight): higher than the Hepatic-SNA value of the group to which water serving as the solvent was administered
- change in hepatic sympathetic nerve activity (Hepatic-SNA) versus water control [1, 3]: higher than the Hepatic-SNA value of the group to which water serving as the solvent was administered
- change in hepatic sympathetic nerve activity (Hepatic-SNA) versus water control [1, 4]: higher than the Hepatic-SNA value of the group to which water serving as the solvent was administered
- change in white adipose tissue sympathetic nerve activity (WAT-SNA) versus water control [2, 3]: higher than the WAT-SNA value of the group to which water serving as the solvent was administered
- change in white adipose tissue sympathetic nerve activity (WAT-SNA) versus water control [2, 4]: higher than the WAT-SNA value of the group to which water serving as the solvent was administered
